Experimental data published in patent US20230000811A1, “COMPOSITIONS FOR DISRUPTING BIOFILM FORMATION AND FOR TREATING BIOFILM-RELATED DISORDERS” (AHV International B.V., priority 2020, published 2023).

Experiments:
Format in all cases: cell-based
[1] = test system: heterotrophic microbial biofilm; assay: Biofilm eradication in PBR (photobioreactor), released CFU's
Experimental: In order to determine the anti-biofilm effect of PTSO, PTS and DPD (dipropyl disulfide), a biofilm was grown under controlled conditions in a glass tube reactor, the PBR. A photobioreactor was used as model system because biofilm formation was clearly visible in the glass tubes. After a mature biofilm was formed, increasing levels of pure PTSO, PTS or DPD were added and the biofilm was removed by titration of pure PTSO, PTS or DPD and the dosages were determined that the biofilm was eradicated. Hereafter, the microbial composition was determined of the biofilm by deep sequencing.
Heterotrophic microbial biofilm: a biofilm was cultivated in a 26.5-liter glass photobioreactor (PBR) with a tube length of 37-meter incl. bends (the GemTube RD-25 Glass of LGEM). The PBR was filled with 22 liters of not sterilized medium (fable 1).
The medium further contained 1 g/l glucose. Inoculation took place by the adding 500 ml ditch water from the Zuidpolder near Delfgauw. Air was pumped in with a rate of 1.0 liter/min: at this setting the medium circulation through the PBR in the medium was as low as possible but there was a stable hold-up to realize medium circulation in the PBR. The PBR was covered with a dark plastic screen to prevent exposure to the light. Incubation took place at 12-18° C. and pH was controlled 5 times per week to 5.2-5.7, once per 1.5 day. After a total dosage of 5 g/l glucose, (after 1 week) a slimy layer (biofilm) was formed that covers the whole inner surface of the glass tube. The medium was replaced by fresh medium without glucose when the biofilm was formed.
Pure PTSO and PTS were obtained as is indicated in example 1 and stable solutions were prepared in water by sonication of 1000× diluted mixtures. DPD (dipropyl disulfide >98% pure) was supplied by Sigma. After each addition step the biofilm culture was incubated for 24 hours to observe the stability of the biofilm.
The numbers of aerobic, anaerobic/micro-aerophilic and fungal CFU's in the biofilm and supernatant were determined according to standard operating procedures as follows: for aerobic colony forming units per ml (CFU/ml) see https://www.iso.org/standard/53728.html; for the determination of anaerobic CFU's/ml see https://www.thermofisher.com/order/catalog/product/AN0025A#HAN0025A (the plates are incubated in an oxygen-free container) and with respect to the numbers of colony forming unites for fungi see http://edgeanalytical.com/wp-content/uploads/Food_AOAC-997.02.pdf (see Table 2).
Another sample of the biofilm was drawn and a part was stored at minus 80 degrees as inoculum material for further studies. The other part of the biofilm was dissolved by gentle sonification and used to determine the aerobic, anaerobic and fungal numbers of colony forming units as described above. Hereafter it was calculated whether the numbers of colony forming microorganisms in the medium corresponded with the number of microorganisms in the biofilm prior to the treatment. In this way it was calculated whether the microorganisms were killed by the treatments, or that the bacteria remained alive and that only the biofilm was solubilized.
In order to investigate whether PTSO has a destabilizing effect of the biofilm or simply kills the microorganisms, samples were drawn from the biofilm before the treatments and samples of the liquid medium were drawn before and after treatment and were inoculated as described above to determine the number of colony forming units. Hereafter it was calculated whether the numbers of colony forming microorganisms in the medium corresponded with the number of microorganisms in the biofilm prior to the treatment. In this way it was calculated whether the microorganisms are killed by the treatments, or that the bacteria remained alive and that only the biofilm was solubilized (fable 6).

[2] = test system: Staphylococcus aureus strains; assay: MBIC 90 (minimum biofilm inhibitory concentration)
Text: (§1) In this example the following bacterial strains were used: Staphyllococcus aureus ATCC 25923 obtained from the ATCC collection; Staphyllococcus aureus 074 was kindly provided by prof. Fink, Faculty of Veterinary Medicine, Utrecht University, the Netherlands, described as a clinical isolate from cows with mastitis. Information for the strain is further given in: Melchior, M. B., Fink-Gremmels, J., & Gaastra, W. (2006). Comparative Assessment of the Antimicrobial Susceptibility of Staphylococcus aureus Isolates from Bovine Mastitis in Biofilm Versus Planktonic Culture. Journal of Veterinary Medicine Series B, 53(7), 326-332; Staphyllococcus aureus ATCC 15564 obtained from the ATCC collection and Streptococcus uberis clinical isolate from a cow with mastitis, part from the collection of Department of Veterinary Microbiology, Infectious and Parasitic Diseases, Trakia University, Bulgary.
(§2) Minimum Biofilm Inhibitory Concentration (MBIC) and Microtiter Biofilm Eradication concentration (MBEC) are defined and measured as indicated in table 7.
(§3) Applying the methods as summarised in table 7, the above-mentioned bacteria were tested with PTSO/PTS enriched plant extract, pure PTSO, and pure PTS as described in example 1 and DPD as described in example 2.

Streptococcus uberis [3] = assay: MBIC 90 (minimum biofilm inhibitory concentration); settings: Str. uberis clinical isolate
Text: as §1, §2, §3

[4] = test system: Staphylococcus aureus strains; assay: MBEC (biofilm eradication)
Text: as §1, §2, §3

Streptococcus uberis [5] = assay: MBEC (biofilm eradication); settings: Str. uberis clinical isolate
Text: as §1, §2, §3

[6] = PTSO cumulative dosage 0.05 ul/l culture (dose 0.05), day 2
[7] = PTSO cumulative dosage 0.15 ul/l culture (dose 0.1), day 6
[8] = PTSO cumulative dosage 0.65 ul/l culture (dose 0.5), day 8
[9] = PTSO cumulative dosage 1.65 ul/l culture (dose 1.0), day 13
[10] = PTSO cumulative dosage 3.65 ul/l culture (dose 2.0), day 15
[11] = after 208 mg pure DPD/liter culture
[12] = total dose DPD (cumulative) 1 ul/l (dose 0.50)
[13] = total dose DPD (cumulative) 2 ul/l (dose 1.00)
[14] = total dose DPD (cumulative) 7 ul/l (dose 5.00)
[15] = total dose DPD (cumulative) 17 ul/l (dose 10.00)
[16] = total dose DPD (cumulative) 67 ul/l (dose 50.00)
[17] = total dose DPD (cumulative) 117 ul/l (dose 50.00)
[18] = total dose DPD (cumulative) 167 ul/l (dose 50.00)
[19] = total dose DPD (cumulative) 217 ul/l (dose 50.00)
[20] = total dose DPD (cumulative) 267 ul/l (dose 50.00)
[21] = total dose DPD (cumulative) 317 ul/l (dose 50.00)
[22] = total dose DPD (cumulative) 367 ul/l (dose 50.00)
[23] = total dose DPD (cumulative) 417 ul/l (dose 50.00)
[24] = total dose DPD (cumulative) 467 ul/l (dose 50.00)
[25] = total dose DPD (cumulative) 517 ul/l (dose 50.00)

Structure (SMILES): CCCSS(=O)(=O)CCC (single isomer, unassigned) [PTSO, propyl-propane thiosulfonate]
- Aerobic CFU's after 24 hours [1, 6]: 2,033 ×1000
- Anaerobic CFU's after 24 hour [1, 6]: 383 ×1000
- Fungal CFU's after 24 hours [1, 6]: 150 ×1000
- Aerobic CFU's after 24 hours [1, 7]: 3,367 ×1000
- Anaerobic CFU's after 24 hour [1, 7]: 750 ×1000
- Fungal CFU's after 24 hours [1, 7]: 150 ×1000
- Aerobic CFU's after 24 hours [1, 8]: 6,267 ×1000
- Anaerobic CFU's after 24 hour [1, 8]: 1,127 ×1000
- Fungal CFU's after 24 hours [1, 8]: 517 ×1000
- Aerobic CFU's after 24 hours [1, 9]: 17,333 ×1000
- Anaerobic CFU's after 24 hour [1, 9]: 4,400 ×1000
- Fungal CFU's after 24 hours [1, 9]: 20,333 ×1000
- Aerobic CFU's after 24 hours [1, 10]: 5,867 ×1000
- Anaerobic CFU's after 24 hour [1, 10]: 2,933 ×1000
- Fungal CFU's after 24 hours [1, 10]: 1,567 ×1000
- Total (released from biofilm) colony forming units/ml, In culture supernatant ([1]; after 0.9 mg pure PTSO/liter culture): 42,000 units/ml (×1000)
- Total colony forming units/ml, In biofilm ([1]; after 0.9 mg pure PTSO/liter culture, 0* means biofilm had disappeared): 0* units/ml (×1000)
- % volume biofilm in relation to culture volume ([1]; after 0.9 mg pure PTSO/liter culture, before start treatment 18): 0%
- total dosage at which the biofilm became significantly thinner ([1]; mature biofilm in PBR, visual observation): 0.65 ul/l
- total dosage at which disintegration / release of the biofilm becomes visible ([1]; mature biofilm in glass tube PBR, visual observation): 0.05 ul/l
- MBIC 90 ([2]; St. aureus 074): 128 µg/mL
- MBIC 90 ([2]; St. aureus ATCC 15564): 128 µg/mL
- MBIC 90 ([2]; St. aureus ATCC 25923): 128 µg/mL
- MBIC 90 (Streptococcus uberis [3]): 128 µg/mL
- MBEC (biofilm eradication) ([4]; St. aureus 074): 256 µg/mL
- MBEC (biofilm eradication) ([4]; St. aureus ATCC 15564): 256 µg/mL
- MBEC (biofilm eradication) ([4]; St. aureus ATCC 25923): 512 µg/mL
- MBEC (biofilm eradication) (Streptococcus uberis [5]): 512 µg/mL

Structure (SMILES): CCCSSCCC [DPD, dipropyl disulfide]
- state of the biofilm at the highest dosages (visual) ([1]; PBR, highest dosage(s) added): did not remove the remainder of the thin biofilm
- Total (released from biofilm) colony forming units/ml, In culture supernatant [1, 11]: 3,403 units/ml (×1000)
- Total colony forming units/ml, In biofilm [1, 11]: 0 units/ml (×1000)
- % volume biofilm in relation to culture volume ([1]; after 208 mg pure DPD/liter culture, before start treatment 7): 0%
- total addition at which the biofilm started to release from the glass ([1]; after dose 8, visual observation): 160 mg pure DPD/liter
- Aerobic CFU's after 24 hours [1, 12]: 400000 ×1000
- Anaerobic CFU's after 24 hour [1, 12]: 45333 ×1000
- Fungal CFU's after 24 hours [1, 12]: 33333 ×1000
- Aerobic CFU's after 24 hours [1, 13]: 440000 ×1000
- Anaerobic CFU's after 24 hour [1, 13]: 43333 ×1000
- Fungal CFU's after 24 hours [1, 13]: 29000 ×1000
- Aerobic CFU's after 24 hours [1, 14]: 390000 ×1000
- Anaerobic CFU's after 24 hour [1, 14]: 43333 ×1000
- Fungal CFU's after 24 hours [1, 14]: 35000 ×1000
- Aerobic CFU's after 24 hours [1, 15]: 403333 ×1000
- Anaerobic CFU's after 24 hour [1, 15]: 39333 ×1000
- Fungal CFU's after 24 hours [1, 15]: 25333 ×1000
- Aerobic CFU's after 24 hours [1, 16]: 376667 ×1000
- Anaerobic CFU's after 24 hour [1, 16]: 40333 ×1000
- Fungal CFU's after 24 hours [1, 16]: 24000 ×1000
- Aerobic CFU's after 24 hours [1, 17]: 426667 ×1000
- Anaerobic CFU's after 24 hour [1, 17]: 37667 ×1000
- Fungal CFU's after 24 hours [1, 17]: 22333 ×1000
- Aerobic CFU's after 24 hours [1, 18]: 563333 ×1000
- Anaerobic CFU's after 24 hour [1, 18]: 43000 ×1000
- Fungal CFU's after 24 hours [1, 18]: 18333 ×1000
- Aerobic CFU's after 24 hours [1, 19]: 1766667 ×1000
- Anaerobic CFU's after 24 hour [1, 19]: 267000 ×1000
- Fungal CFU's after 24 hours [1, 19]: 18667 ×1000
- Aerobic CFU's after 24 hours [1, 20]: 1413333 ×1000
- Anaerobic CFU's after 24 hour [1, 20]: 340000 ×1000
- Fungal CFU's after 24 hours [1, 20]: 17000 ×1000
- Aerobic CFU's after 24 hours [1, 21]: 936667 ×1000
- Anaerobic CFU's after 24 hour [1, 21]: 100000 ×1000
- Fungal CFU's after 24 hours [1, 21]: 223333 ×1000
- Aerobic CFU's after 24 hours [1, 22]: 163333 ×1000
- Anaerobic CFU's after 24 hour [1, 22]: 35667 ×1000
- Fungal CFU's after 24 hours [1, 22]: 273333 ×1000
- Aerobic CFU's after 24 hours [1, 23]: 107333 ×1000
- Anaerobic CFU's after 24 hour [1, 23]: 19333 ×1000
- Fungal CFU's after 24 hours [1, 23]: 24333 ×1000
- Aerobic CFU's after 24 hours [1, 24]: 103333 ×1000
- Anaerobic CFU's after 24 hour [1, 24]: 9333 ×1000
- Fungal CFU's after 24 hours [1, 24]: 12667 ×1000
- Aerobic CFU's after 24 hours [1, 25]: 98333 ×1000
- Anaerobic CFU's after 24 hour [1, 25]: 5467 ×1000
- Fungal CFU's after 24 hours [1, 25]: 8000 ×1000
- total dosage up to which biofilm release continued ([1]; visual observation): 317 ul pure DPD/liter
- MBIC 90 ([2]; St. aureus 074): >1024 µg/mL
- MBIC 90 ([2]; St. aureus ATCC 15564): >1024 µg/mL
- MBIC 90 ([2]; St. aureus ATCC 25923): >1024 µg/mL
- MBIC 90 (Streptococcus uberis [3]): >1024 µg/mL
- MBEC (biofilm eradication) ([4]; St. aureus 074): 1024 µg/mL
- MBEC (biofilm eradication) ([4]; St. aureus ATCC 15564): >1024 µg/mL
- MBEC (biofilm eradication) ([4]; St. aureus ATCC 25923): >1024 µg/mL
- MBEC (biofilm eradication) (Streptococcus uberis [5]): >1024 µg/mL
